Test results as given in patent publication US4563474A, “Phthalimides and thienopyrrols as drugs” (BASF Aktiengesellschaft, priority 1982, dated 1986).
Like-named read-outs stand apart in the source and are kept apart here.

What was measured:
[1] = test system: reserpine-induced hypothermia; assay: Antidepressant action: inhibition of reserpine-induced hypothermia; format: in vivo, male mice (Swiss); conditions: for ED50: po, read-out: Antidepressant action (mouse) ED50
Protocol: Antidepressants produce a dose-dependent inhibition of this hypothermia. The test substances were administered orally 60 minutes before reserpine.

[2] = test system: orientation hypermotility; assay: Sedative action: reduction of orientation hypermotility induced by a new environment; format: in vivo, female NMRI mice; conditions: for ED50: po, 0.5 h, read-out: Sedative action (mouse) ED50
Protocol: The test substances were administered orally to groups comprising three female NMRI mice each. The orientation hypermotility induced by a new environment is determined photoelectrically, 30 minutes after administration of the substance, over a period of 30 minutes.
The ED50, ie. the dose which produces 50% reduction in orientation hypermotility compared to untreated control animals, was determined.

[3] = mouse, administered orally 60 minutes before reserpine (2.15 mg/kg s.c.), 50% inhibition of hypothermia
[4] = mouse, administered orally, 30 min after administration, over 30 min, 50% reduction in orientation hypermotility

SMILES: CC(=CC#N)CN1C(=O)c2ccccc2S1(=O)=O [Example 1, 3-(2,3-dihydro-1,1-dioxido-3-oxo-1,2-benzisothiazol-2-yl)-1-cyano-2-methylprop-1-ene]
- ED50 [1, 3]: 3.5 mg/kg
- ED50 [2, 4]: 50 mg/kg

SMILES: O=C1NCCCC1N1C(=O)c2ccccc2S1(=O)=O (stereo not drawn) [Supidimide, 3-(2,3-dihydro-1,1-dioxido-3-oxo-1,2-benzisothiazol-2-yl)-2-oxopiperidine, reference compound]
- ED50 [1, 3]: 2150 mg/kg
- antidepressant action (in words) ([1]; up to the maximum test dose of 2,150 mg/kg, administered orally): completely absent
- weak suppressant effect on the central nervous system (in words) ([2]; known, and also found in the test for sedative action): weak suppressant effect on the central nervous system
- ED50 [2, 4]: 277 mg/kg

SMILES: CC(=CC#N)CN1Cc2ccccc2C1=O [Example 12, 3-(Phthalimidin-2-yl)-1-cyano-2-methylprop-1-ene]
- ED50 [1, 3]: 11.4 mg/kg
- ED50 [2, 4]: 49 mg/kg

SMILES: CC(=CC#N)CN1C(=O)c2c(Cl)cccc2S1(=O)=O [Example 4, 3-(2,3-Dihydro-4-chloro-1,1-dioxido-3-oxo-1,2-benzisothiazol-2-yl)-1-cyano-2-methylprop-1-ene]
- ED50 [1, 3]: 3.1 mg/kg
- ED50 [2, 4]: 52 mg/kg

SMILES: CC(=CC#N)CCN1C(=O)c2ccccc2C1=O [Example 18, 4-(Phthalimid-2-yl)-1-cyano-2-methylbut-1-ene]
- ED50 [1, 3]: 4.5 mg/kg
- ED50 [2, 4]: 29 mg/kg

SMILES: CC(=CC#N)CN1C(=O)c2ccccc2C1=O [Example 11, 3-(Phthalimid-2-yl)-1-cyano-2-methylprop-1-ene]
- ED50 [1, 3]: 18.9 mg/kg
- ED50 [2, 4]: 68 mg/kg

SMILES: CN(C)CCCN1c2ccccc2CCc2ccccc21 [Imipramine, reference compound]
- ED50 ([1]; Mus musculus): 6.8 mg/kg
- ED50 ([2]; Mus musculus): ~100 mg/kg

SMILES: CC(=CC#N)CN1C(=O)c2cc(Cl)ccc2S1(=O)=O [Example 6, 3-(2,3-Dihydro-5-chloro-1,1-dioxido-3-oxo-1,2-benzisothiazol-2-yl)-1-cyano-2-methylprop-1-ene]
- ED50 [1, 3]: 1.1 mg/kg
- ED50 [2, 4]: 100 mg/kg
